Results published in US8883847B2, “Compositions and methods of treatment using modulators of motoneuron diseases” (KineMed, Inc., priority 2006, dated 2014).

Test system: SOD1-G93A TGN mice
Assay: Noscapine-MK801 treatment of SOD1-G93A TGN mice: gait/stride length, disease onset, mortality
Type: in vivo, mouse
Conditions: for Mortality: age at death; for Onset of motor deficits: age at onset
Procedure: FIG. 6. Noscapine-MK801 combination delays onset of disease and death in SOD1-G93A TGN mice. The one and two-drug treatments were started at an early (i.e., presymptomatic) stage of disease (7 weeks). SOD1-G93A TGN mice were treated 3 times a week with noscapine (0.2 mg/kg body weight) and/or MK-801 (12 mg/kg body weight/day). Mice received noscapine intraperitoneally and MK-801 in drinking water.
Female SOD-1 G93A TGN mice were obtained from Jackson laboratory (strain #2726). The controls were matched litter mates. Treatment groups were three per group. Noscapine was injected intraperitoneal in the thigh 3 times/week (0.2 mg/kg i.p.) and MK801 was administered continuously in drinking water (12 mg/kg/d). Gait analysis was done by the method of Wooley et al., Muscle Nerve 2005 32(1):43-50 and Carter et al. J. Neurosci., 19(8):3248-3257, hereby incorporated by reference in their entirety.
For clinical assessment endpoints scoring was selected as follows:
GROUP CLASSIFICATION: Presymptomatic
Clinical signs: Full mobility and no observable difference in behavior from age-matched controls (Gait or stride length analysis).
GROUP CLASSIFICATION: Onset
Clinical signs: Abnormal Gait or stride length analysis and hindlimb weakness: >40% reduction in stride length vs. age-matched littermates.
GROUP CLASSIFICATION: End Stage (euthanization)
Clinical signs: noticeable and complete hind limb paralysis (which in this strain occurs more on one limb than the other) and inability to right themselves in 5 sec time window. This stage starts usually as the mice are failing the gait analysis test and enter the End stage. Therefore, Transgenic SOD1-G93A TGN mice are euthanized at the onset of noticeable and complete hindlimb paralysis and inability to right themselves in 5 sec time window.

With `C[C@]12N[C@H](Cc3ccccc31)c1ccccc12` [MK-801, Dizocilipine] the Mortality was 112 to 119 days and the “Onset of motor deficits” value was 105 to 112 days.

For `COc1ccc2c(c1OC)C(=O)O[C@@H]2[C@H]1c2c(cc3c(c2OC)OCO3)CCN1C` [Noscapine, noscapine], the Mortality was 112 to 119 days and the “Onset of motor deficits” value was 98 to 105 days.
